Measurements as given in US9765092B2, “Tricyclic piperidine compounds” (ACTELION PHARMACEUTICALS LTD, priority 2013, dated 2017).
pIC50: −log10 of the molar value.

target: human TPH1 (Homo sapiens (Human), UniProt P17752); assay: Biochemical in vitro assay using fluorescence readout (TPH1 inhibition); details: full length human TPH1, 40 μM L-tryptophan, 15° C., 60 minutes, fluorescence at 540 nm; mean if determined several times
Sequence (P17752 whole entry): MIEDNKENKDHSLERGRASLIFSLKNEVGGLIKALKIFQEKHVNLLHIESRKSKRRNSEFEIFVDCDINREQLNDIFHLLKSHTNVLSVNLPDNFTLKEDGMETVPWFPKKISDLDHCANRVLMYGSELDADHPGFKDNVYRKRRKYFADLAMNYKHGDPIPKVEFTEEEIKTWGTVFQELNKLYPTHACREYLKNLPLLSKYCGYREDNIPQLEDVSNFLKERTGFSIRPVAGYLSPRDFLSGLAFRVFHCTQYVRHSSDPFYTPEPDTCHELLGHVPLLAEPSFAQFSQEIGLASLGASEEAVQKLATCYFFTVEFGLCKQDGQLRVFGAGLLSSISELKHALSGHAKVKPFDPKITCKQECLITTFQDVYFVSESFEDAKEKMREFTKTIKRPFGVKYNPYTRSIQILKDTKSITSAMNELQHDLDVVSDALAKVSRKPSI

| Structure (SMILES) | pIC50 |
| --- | --- |
| Cc1nn2c3c(nc2s1)CCN(C(=O)COc1ccc(N2C[C@@H](C)C[C@H](C)C2)nc1Cl)C3c1ccc(Cl)cc1F (stereo partly drawn) [Example 1.4.20, 1-(5-(4-Chloro-2-fluorophenyl)-2-methyl-7,8-dihydro-[1,3,4]thiadiazolo[2′,3′:2,3]imidazo[4,5-c]pyridin-6(5H)-yl)-2-((2-chloro-6-((3S,5S)-3,5-dimethylpipe-ridin-1-yl)pyridin-3-yl)oxy)ethanone] | 8.52 |
| CNC(=O)c1ccc(OCC(=O)N2CCc3nc4sc(C)nn4c3C2c2cc(C(=O)N(C)C)cs2)c(Cl)n1 (stereo not shown) [Example 1.9.6, 6-Chloro-5-(2-(5-(4-(dimethylcarbamoyl)thiophen-2-yl)-2-methyl-7,8-dihydro-[1,3,4]-thiadiazolo[2′,3′:2,3]imidazo[4,5-c]pyridin-6(5H)-yl)-2-oxoethoxy)-N-methyl-picolinamide] | 7.00 |
| CNC(=O)c1ccc(OCC(=O)N2CCc3nc4sc(C)nn4c3C2c2ncc(C(=O)N(C)C)s2)c(Cl)n1 (stereo not shown) [Example 1.37.1, 2-(6-(2-((2-Chloro-6-(methylcarbamoyl)pyridin-3-yl)oxy)acetyl)-2-methyl-5,6,7,8-tetra-hydro-[1,3,4]thiadiazolo[2′,3′:2,3]imidazo[4,5-c]pyridin-5-yl)-N,N-dimethylthiazole-5-carboxamide] | 6.75 |

same assay, conditions: human TPH1, fluorescence readout

| Structure (SMILES) | pIC50 |
| --- | --- |
| CNC(=O)c1ccc(OCC(=O)N2CCc3nc4sccn4c3C2c2sccc2F)c(Cl)n1 (stereo not shown) [Example 6.8.3, 6-chloro-5-(2-(5-(3-fluorothiophen-2-yl)-7,8-dihydro-thiazolo[2′,3′:2,3]imidazo[4,5-c]pyridin-6(5H)-yl)-2-oxoethoxy)-N-methylpicolinamide] | 8.05 |
| Cc1nn2c3c(nc2s1)CCN(C(=O)COc1ccc(N2CCOCC2)nc1Cl)C3c1nc(CN(C)C)cs1 (stereo not shown) [Example 1.17.1, 2-((2-chloro-6-morpholinopyridin-3-yl)oxy)-1-(5-(4-((dimethylamino)methyl)thiazol-2-yl)-2-methyl-7,8-dihydro-[1,3,4]thiadiazolo[2′,3′:2,3]imidazo[4,5-c]pyridin-6(5H)-yl)ethanone] | 7.21 |
| Cc1nn2c3c(nc2s1)CCN(C(=O)COc1ccc(C(F)(F)F)cc1Cl)C3c1sccc1F (stereo not shown) [Example 1.23.5, 2-(2-chloro-4-(trifluoromethyl)phenoxy)-1-(5-(3-fluorothiophen-2-yl)-2-methyl-7,8-dihydro-[1,3,4]thiadiazolo[2′,3′:2,3]imidazo[4,5-c]pyridin-6(5H)-yl)ethanone] | 8.05 |
| Cc1nn2c3c(nc2s1)CCN(C(=O)COc1ccc(NS(C)(=O)=O)cc1Cl)C3c1ncc(Cl)cc1F (stereo not shown) [Example 1.33.7, N-(3-chloro-4-(2-(5-(5-chloro-3-fluoropyridin-2-yl)-2-methyl-7,8-dihydro-[1,3,4]thiadiazolo[2′,3′:2,3]imidazo[4,5-c]pyridin-6(5H)-yl)-2-oxoethoxy)phenyl)methanesulfonamide] | 7.89 |
| Cc1ncc(C2c3c(nc4sc(C)nn34)CCN2C(=O)COc2ccc(C(=O)N(C)C)nc2Cl)s1 (stereo not shown) [Example 1.59.1, 6-chloro-N,N-dimethyl-5-(2-(2-methyl-5-(2-methylthiazol-5-yl)-7,8-dihydro-[1,3,4]thiadiazolo[2′,3′:2,3]imidazo[4,5-c]pyridin-6(5H)-yl)-2-oxoethoxy)picolinamide] | 7.43 |
| COC(=O)c1cnc(C2c3c(nc4sc(C)nn34)CCN2C(=O)COc2ccc(N3CC(F)(F)C3)nc2Cl)s1 (stereo not shown) [Example 1.28.4, Methyl 2-(6-(2-((2-chloro-6-(3,3-difluoroazetidin-1-yl)pyridin-3-yl)oxy)acetyl)-2-methyl-5,6,7,8-tetrahydro-[1,3,4]thiadiazolo[2′,3′:2,3]imidazo[4,5-c]pyridin-5-yl)thiazole-5-carboxylate] | 7.77 |
| CCc1nc(C)ccc1OCC(=O)N1CCc2nc3sccn3c2C1c1ccc(C(F)(F)F)nc1C (stereo not shown) [Example 6.17.1, 2-((2-ethyl-6-methylpyridin-3-yl)oxy)-1-(5-(2-methyl-6-(trifluoromethyl)pyridin-3-yl)-7,8-dihydrothiazolo-[2′,3′:2,3]imidazo[4,5-c]pyridin-6(5H)-yl)ethanone] | 6.71 |
| Cc1nn2c3c(nc2s1)CCN(C(=O)COc1ccc(-c2ncco2)nc1Cl)[C@H]3c1sccc1F [Example 1.23.15, (R)-2-((2-chloro-6-(oxazol-2-yl)pyridin-3-yl)oxy)-1-(5-(3-fluorothiophen-2-yl)-2-methyl-7,8-dihydro-[1,3,4]thiadiazolo[2′,3′:2,3]imidazo[4,5-c]pyridin-6(5H)-yl)ethanone] | 7.70 |
| Cc1nn2c3c(nc2s1)CCN(C(=O)COc1ccc(N(C)C)nc1Cl)C3c1cnc(OC(F)F)cc1C (stereo not shown) [Example 1.15.1, 2-((2-chloro-6-(dimethylamino)pyridin-3-yl)oxy)-1-(5-(6-(difluoromethoxy)-4-methylpyridin-3-yl)-2-methyl-7,8-dihydro-[1,3,4]thiadiazolo[2′,3′:2,3]imidazo[4,5-c]pyridin-6(5H)-yl)ethanone] | 7.24 |
| CN(C)C(=O)c1ccc(OCC(=O)N2CCc3nc4sccn4c3C2c2sccc2F)c(Cl)n1 (stereo not shown) [Example 6.8.2, 6-chloro-5-(2-(5-(3-fluorothiophen-2-yl)-7,8-dihydro-thiazolo[2′,3′:2,3]imidazo[4,5-c]pyridin-6(5H)-yl)-2-oxoethoxy)-N,N-dimethylpicolinamide] | 8.30 |
| Cc1cnc([C@H]2c3c(nc4sc(C)nn34)CCN2C(=O)COc2ccc(N3CCCS3(=O)=O)nc2Cl)c(F)c1 [Example 1.31.17, (R)-2-((2-chloro-6-(1,1-dioxidoisothiazolidin-2-yl)pyridin-3-yl)oxy)-1-(5-(3-fluoro-5-methylpyridin-2-yl)-2-methyl-7,8-dihydro-[1,3,4]thiadiazolo[2′,3′:2,3]imidazo[4,5-c]pyridin-6(5H)-yl)ethanone] | 8.10 |
| CCc1nc(C)ccc1OCC(=O)N1CCc2nc3sccn3c2C1c1ccc(C(F)(F)F)cc1F (stereo not shown) [Example 6.11.1, 2-((2-ethyl-6-methylpyridin-3-yl)oxy)-1-(5-(2-fluoro-4-(trifluoromethyl)phenyl)-7,8-dihydrothiazolo-[2′,3′:2,3]imidazo[4,5-c]pyridin-6(5H)-yl)ethanone] | 8.00 |
| CCc1nc(C)c(C2c3c(nc4sc(C)nn34)CCN2C(=O)COc2ccc(NS(C)(=O)=O)nc2Cl)s1 (stereo not shown) [Example 1.72.1, N-(6-chloro-5-(2-(5-(2-ethyl-4-methylthiazol-5-yl)-2-methyl-7,8-dihydro-[1,3,4]thiadiazolo[2′,3′:2,3]imidazo-[4,5-c]pyridin-6(5H)-yl)-2-oxoethoxy)pyridin-2-yl)methanesulfonamide] | 7.66 |
| Cc1ccc(OCC(=O)N2CCc3nc4sc(C)nn4c3C2c2ccc(C3CC3)cc2F)c(C)n1 (stereo not shown) [Example 1.6.3, 1-(5-(4-cyclopropyl-2-fluorophenyl)-2-methyl-7,8-dihydro-[1,3,4]thiadiazolo[2′,3′:2,3]imidazo[4,5-c]pyridin-6(5H)-yl)-2-((2,6-dimethylpyridin-3-yl)oxy)ethanone] | 7.89 |
| Cc1noc(C)c1C1c2c(nc3sccn23)CCN1C(=O)COc1ccc(Cl)cc1Cl (stereo not shown) [Example 6.5.2, 2-(2,4-dichlorophenoxy)-1-(5-(3,5-dimethylisoxazol-4-yl)-7,8-dihydrothiazolo[2′,3′:2,3]imidazo[4,5-c]pyridin-6(5H)-yl)ethanone] | 7.21 |
| Cc1cnc(C2c3c(nc4sc(C)nn34)CCN2C(=O)COc2ccc(NS(=O)(=O)C3CC3)nc2Cl)c(F)c1 (stereo not shown) [Example 1.31.9, N-(6-chloro-5-(2-(5-(3-fluoro-5-methylpyridin-2-yl)-2-methyl-7,8-dihydro-[1,3,4]thiadiazolo[2′,3′:2,3]imidazo[4,5-c]pyridin-6(5H)-yl)-2-oxoethoxy)pyridin-2-yl)cyclopropanesulfonamide] | 7.68 |
| Cc1nn2c3c(nc2s1)CCN(C(=O)COc1ccc(NS(C)(=O)=O)nc1Cl)C3c1cc(F)c(C)cc1F (stereo not shown) [Example 1.74.2, N-(6-chloro-5-(2-(5-(2,5-difluoro-4-methylphenyl)-2-methyl-7,8-dihydro-[1,3,4]thiadiazolo[2′,3′:2,3]imidazo[4,5-c]pyridin-6(5H)-yl)-2-oxoethoxy)pyridin-2-yl)methanesulfonamide] | 7.74 |
| Cc1nn2c3c(nc2s1)CCN(C(=O)COc1ccc(F)cc1C)C3c1ccc(C2CC2)cc1F (stereo not shown) [Example 1.6.10, 1-(5-(4-cyclopropyl-2-fluorophenyl)-2-methyl-7,8-dihydro-[1,3,4]thiadiazolo[2′,3′:2,3]imidazo[4,5-c]pyridin-6(5H)-yl)-2-(4-fluoro-2-methylphenoxy)ethanone] | 8.22 |
| CCc1nc(NS(C)(=O)=O)ccc1OCC(=O)N1CCc2nc3sc(CF)nn3c2C1c1sc(C)nc1C (stereo not shown) [Example 7.4.2, N-(5-(2-(5-(2,4-dimethylthiazol-5-yl)-2-(fluoromethyl)-7,8-dihydro-[1,3,4]thiadiazolo[2′,3′:2,3]imidazo[4,5-c]pyridin-6(5H)-yl)-2-oxoethoxy)-6-ethylpyridin-2-yl)methanesulfonamide] | 8.15 |
| COC(=O)c1ccc(C2c3c(nc4sc(C)nn34)CCN2C(=O)COc2ccc(N3CCOCC3)nc2Cl)o1 (stereo not shown) [Example 1.26.1, Methyl 5-(6-(2-((2-chloro-6-morpholinopyridin-3-yl)oxy)acetyl)-2-methyl-5,6,7,8-tetrahydro-[1,3,4]thiadiazolo [2′,3′:2,3]imidazo[4,5-c]pyridin-5-yl)furan-2-carboxylate] | 8.00 |
| Cc1nn2c3c(nc2s1)CCN(C(=O)COc1ccc(N2CCOCC2)cc1Cl)C3c1c(C)noc1C (stereo not shown) [Example 1.5.1, 2-(2-chloro-4-morpholinophenoxy)-1-(5-(3,5-dimethylisoxazol-4-yl)-2-methyl-7,8-dihydro[1,3,4]thiadiazolo[2′,3′:2,3]imidazo[4,5-c]pyridin-6(5H)-yl)ethanone] | 7.66 |
| Cc1nn2c3c(nc2s1)CCN(C(=O)COc1ccc(C(=O)N(C)C2CC2)nc1Cl)C3c1ccc(C2CC2)cc1F (stereo not shown) [Example 1.6.28, 6-chloro-N-cyclopropyl-5-(2-(5-(4-cyclopropyl-2-fluoro-phenyl)-2-methyl-7,8-dihydro-[1,3,4]thiadiazolo-[2′,3′:2,3]imidazo[4,5-c]pyridin-6(5H)-yl)-2-oxoethoxy)-N-methylpicolinamide] | 7.74 |
